Experimental data published in patent US6596687B1, “Cell adhesion inhibitors” (Biogen, Inc., priority 1995, dated 2003).
pIC50: −log10 of the molar value. Numbered stars: 1 amine (or outer) side, 2 acyl side, 3 side chain; on linkers, the order of the positions; unused ones are H or OH. Square brackets hold non-standard residues; d marks the D form. Peptide text beside a SMILES is read from it. * marks the point of attachment. X2 = O=C(Cc1ccc(N[*:1])cc1)[*:2]; PhAc = O=C(Cc1ccccc1)*; CO = O=C([*:1])[*:2]; Bz = O=C(c1ccccc1)*; NHPh = c1ccc(N*)cc1; Bn = c1ccc(C*)cc1; NHBu = CCCCN*

Molecular target: T1, VLA4 (Homo sapiens, UniProt P05556+P13612)
T1 construct: endogenous in cells; host or cells: Ramos cells
Assay: Inhibition of VLA4-dependent adhesion of Ramos cells to BSA-CS1
Type: cell-based
Conditions: Ramos cells, BSA-CS1 coated wells, 2 mM MnCl2, 30 minutes at room temperature; read-out: IC50
In short: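 BCECF-AM-labelled Ramos cells in Tris buffer pH 7.4 with 2 mM MnCl2 were added with compound to wells coated with BSA-conjugated Cys-Tyr-CS1 peptide (1 μg/mL). Cells and compound were incubated for 30 min at room temperature, in triplicate. Inhibition was quantified from bound fluorescence against no-compound controls, with uncoated wells used for nonspecific binding.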

T1 sequence (P13612 34-1032): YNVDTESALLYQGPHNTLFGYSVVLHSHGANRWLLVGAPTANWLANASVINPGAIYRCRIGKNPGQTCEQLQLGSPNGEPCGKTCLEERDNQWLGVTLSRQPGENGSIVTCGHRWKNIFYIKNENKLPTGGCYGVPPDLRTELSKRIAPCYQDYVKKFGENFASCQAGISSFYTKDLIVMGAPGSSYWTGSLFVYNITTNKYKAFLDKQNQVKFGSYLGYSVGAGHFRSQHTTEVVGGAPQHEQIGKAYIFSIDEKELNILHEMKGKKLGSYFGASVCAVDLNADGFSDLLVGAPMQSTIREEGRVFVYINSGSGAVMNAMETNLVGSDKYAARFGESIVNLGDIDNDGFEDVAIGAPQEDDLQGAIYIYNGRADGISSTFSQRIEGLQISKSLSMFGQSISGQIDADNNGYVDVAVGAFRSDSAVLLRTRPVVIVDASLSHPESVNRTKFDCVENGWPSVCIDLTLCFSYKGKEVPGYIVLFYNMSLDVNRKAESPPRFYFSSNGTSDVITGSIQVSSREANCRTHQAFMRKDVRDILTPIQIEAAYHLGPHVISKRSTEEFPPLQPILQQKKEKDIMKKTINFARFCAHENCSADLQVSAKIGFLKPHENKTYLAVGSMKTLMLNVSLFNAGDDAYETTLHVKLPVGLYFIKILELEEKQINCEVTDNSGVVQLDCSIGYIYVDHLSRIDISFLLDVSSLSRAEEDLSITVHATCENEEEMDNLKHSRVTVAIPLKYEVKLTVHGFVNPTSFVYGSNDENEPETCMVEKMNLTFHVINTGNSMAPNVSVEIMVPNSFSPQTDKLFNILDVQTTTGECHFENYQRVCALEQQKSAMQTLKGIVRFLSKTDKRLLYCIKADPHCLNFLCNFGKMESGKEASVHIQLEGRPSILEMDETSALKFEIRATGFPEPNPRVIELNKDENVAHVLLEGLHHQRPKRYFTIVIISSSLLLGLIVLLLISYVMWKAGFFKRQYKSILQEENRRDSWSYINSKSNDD
T1 sequence (P05556 21-798): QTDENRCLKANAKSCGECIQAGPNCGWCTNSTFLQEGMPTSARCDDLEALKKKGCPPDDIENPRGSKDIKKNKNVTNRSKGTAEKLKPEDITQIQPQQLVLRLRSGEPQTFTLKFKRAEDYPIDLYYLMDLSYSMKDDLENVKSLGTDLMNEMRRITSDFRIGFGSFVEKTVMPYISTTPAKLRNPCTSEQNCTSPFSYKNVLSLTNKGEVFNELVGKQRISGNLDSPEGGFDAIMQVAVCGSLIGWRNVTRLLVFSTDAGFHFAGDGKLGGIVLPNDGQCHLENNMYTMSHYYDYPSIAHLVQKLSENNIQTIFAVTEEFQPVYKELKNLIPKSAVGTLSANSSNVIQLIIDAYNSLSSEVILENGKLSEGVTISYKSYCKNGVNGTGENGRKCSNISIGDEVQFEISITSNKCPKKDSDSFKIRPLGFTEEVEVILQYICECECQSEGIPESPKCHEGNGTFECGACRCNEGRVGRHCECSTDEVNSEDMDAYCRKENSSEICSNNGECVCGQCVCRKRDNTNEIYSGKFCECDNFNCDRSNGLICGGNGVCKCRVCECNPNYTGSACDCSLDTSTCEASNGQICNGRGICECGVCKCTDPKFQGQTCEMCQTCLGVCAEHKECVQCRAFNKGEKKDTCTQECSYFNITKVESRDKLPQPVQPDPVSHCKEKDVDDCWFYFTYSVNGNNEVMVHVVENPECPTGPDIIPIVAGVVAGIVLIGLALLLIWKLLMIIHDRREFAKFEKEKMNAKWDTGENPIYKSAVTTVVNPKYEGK

pIC50 | SMILES
< 5.00 | CC(C)CNC(=O)[C@H](CC(=O)O)NC(=O)[C@H](CC(C)C)NC(=O)CCCc1ccccc1 [Compound 161]
< 5.00 | CC(C)CNC(=O)[C@H](CC(=O)O)NC(=O)[C@H](CC(C)C)NC(=O)CCc1ccccc1 [Compound 162]
< 5.00 | CC(C)CNC(=O)[C@H](CC(=O)O)NC(=O)[C@H](CC(C)C)NC(=O)CNC(=O)c1ccccc1 [Compound 163]
5.00 to 7.30 | CNC(=O)[C@@H](NC(=O)[C@H](CC(=O)O)NC(=O)[C@H](CC(C)C)NC(=O)c1ccc2ccccc2n1)C(C)C [Compound 164]
< 5.00 | COc1ccc(C(=O)N[C@@H](CC(C)C)C(=O)N[C@@H](CC(=O)O)C(=O)NCC(C)C)cc1 [Compound 165]
< 5.00 | COC(=O)[C@@H](NC(=O)[C@H](CC(=O)O)NC(=O)[C@H](CC(C)C)NC(=O)CCCc1ccccc1)C(C)C [Compound 166]
< 5.00 | COC(=O)[C@H](CCSC)NC(=O)[C@@H](NC(=O)[C@H](CC(=O)O)NC(=O)[C@H](CC(C)C)NC(=O)OC(C)(C)C)C(C)C [Compound 167] (HELM PEPTIDE1{[CC(C)(C)OC(=O)[*:2]].L.D.V.M.[CO[*:1]]}$$$$V2.0)
5.00 to 7.30 | COC(=O)[C@H](CCSC)NC(=O)[C@@H](NC(=O)[C@H](CC(=O)O)NC(=O)[C@H](CC(C)C)NC(=O)c1ccc2ccccc2n1)C(C)C [Compound 168] (HELM PEPTIDE1{[O=C(c1ccc2ccccc2n1)[*:2]].L.D.V.M.[CO[*:1]]}$$$$V2.0)
< 5.00 | CCCCNC(=O)N[C@@H](CC(=O)O)C(=O)N[C@H](C(=O)OC)C(C)C [Compound 169] ({NHBu-CO}-Asp-Val-OMe)
< 5.00 | COC(=O)[C@@H](NC(=O)[C@H](CC(=O)O)NC(=O)[C@H](CC(C)C)NC(=O)c1ccc2ccccc2n1)[C@@H](C)O [Compound 170]
< 5.00 | CC(C)CNC(=O)[C@H](CC(=O)O)NC(=O)[C@H](CC(C)C)NC(=O)NC(C)(C)C [Compound 171]
< 5.00 | COC(=O)[C@@H](NC(=O)[C@H](CC(=O)O)NC(=O)CNC(=O)c1ccccc1)C(C)C [Compound 172] (HELM PEPTIDE1{[O=C(c1ccccc1)[*:2]].G.D.V.[CO[*:1]]}$$$$V2.0)
< 5.00 | COC(=O)C[C@H](NC(=O)CNC(=O)c1ccccc1)C(=O)N[C@H](C(=O)OC)C(C)C [Compound 173] (Bz-Gly-Asp(OMe)-Val-OMe)
5.00 to 7.30 | CC(C)C[C@H](NC(=O)c1ccc2ccccc2n1)C(=O)N[C@@H](CC(=O)O)C(=O)NC(CO)C(C)C (stereo partly shown) [Compound 174]
5.00 to 7.30 | CC(C)C[C@H](NC(=O)c1ccc2ccccc2n1)C(=O)N[C@@H](CC(=O)O)C(=O)N[C@H](C(=O)N1CCOCC1)C(C)C [Compound 175]
< 5.00 | COC(=O)[C@@H](NC(=O)[C@H](CC(=O)O)NC(=O)[C@H](CC(C)C)NC(=O)Cc1ccc(OC)cc1)[C@@H](C)O [Compound 176]
< 5.00 | COC(=O)[C@@H](NC(=O)[C@H](CC(=O)O)NC(=O)[C@H](CC(C)C)NS(=O)(=O)c1ccc(OC)cc1)[C@@H](C)O [Compound 177]
< 5.00 | CNC(=O)[C@@H](NC(=O)[C@H](CC(=O)O)NC(=O)[C@H](CC(C)C)N(C)C(=O)c1ccc2ccccc2n1)C(C)C [Compound 179]
5.00 to 7.30 | CNC(=O)[C@@H](NC(=O)[C@H](CC(=O)O)NC(=O)[C@H](CC(C)C)N(C)C(=O)Cc1ccccc1)C(C)C [Compound 180] (HELM PEPTIDE1{[O=C(Cc1ccccc1)[*:2]].[meL].D.V.[CN[*:1]]}$$$$V2.0)
< 5.00 | CNC(=O)[C@@H](NC(=O)[C@H](CC(=O)O)NC(=O)[C@H](CC(C)C)NC(=O)Cc1ccccc1)C(C)C [Compound 181] (HELM PEPTIDE1{[O=C(Cc1ccccc1)[*:2]].L.D.V.[CN[*:1]]}$$$$V2.0)
< 5.00 | CNC(=O)[C@@H](NC(=O)[C@H](CC(=O)O)NC(=O)[C@H](CC(C)C)N(C)C(=O)CCc1ccccc1)C(C)C [Compound 182] (HELM PEPTIDE1{[O=C(CCc1ccccc1)[*:2]].[meL].D.V.[CN[*:1]]}$$$$V2.0)
< 5.00 | CNC(=O)[C@@H](NC(=O)[C@H](CC(=O)O)NC(=O)[C@H](CCSC)NC(=O)Cc1ccccc1)C(C)C [Compound 183] (HELM PEPTIDE1{[O=C(Cc1ccccc1)[*:2]].M.D.V.[CN[*:1]]}$$$$V2.0)
< 5.00 | CNC(=O)[C@@H](NC(=O)[C@H](CC(=O)O)NC(=O)[C@H](CC(C)C)NC(=O)Nc1ccccc1)C(C)C [Compound 187] ({NHPh-CO}-Leu-Asp-Val-NHMe)
< 5.00 | CNC(=O)[C@@H](NC(=O)[C@H](CC(=O)O)NC(=O)[C@H](CC(C)C)N(C)C(=O)Cc1ccc(O)cc1)C(C)C [Compound 188]
< 5.00 | CNC(=O)[C@@H](NC(=O)[C@H](CC(=O)O)NC(=O)[C@H](CC(C)C)NS(=O)(=O)c1ccccc1)C(C)C [Compound 189]
< 5.00 | COC(=O)[C@@H](NC(=O)[C@H](CC(=O)O)NC(=O)[C@H](CC(C)C)NC(=O)Cc1ccccc1)[C@@H](C)OC [Compound 190] (PhAc-Leu-Asp-Thr(Me)-OMe)

pIC50 | SMILES
< 5.00 | COC(=O)[C@@H](NC(=O)[C@H](CC(=O)O)NC(=O)[C@H](CC(C)C)NC(=O)Cc1ccccc1)[C@@H](C)O [Compound 191] (HELM PEPTIDE1{[O=C(Cc1ccccc1)[*:2]].L.D.T.[CO[*:1]]}$$$$V2.0)
5.00 to 7.30 | COC(=O)[C@@H](NC(=O)[C@H](CC(=O)O)NC(=O)[C@H](CC(C)C)NC(=O)Cc1ccccc1)[C@@H](C)OCc1ccccc1 [Compound 192] (PhAc-Leu-Asp-Thr(Bn)-OMe)
< 5.00 | COC(=O)[C@@H](NC(=O)[C@H](CC(=O)O)NC(=O)[C@H](CC(C)C)NC(=O)Cc1ccccc1)[C@@H](C)OC(C)=O [Compound 193] (PhAc-Leu-Asp-Thr(Ac)-OMe)
< 5.00 | CCCCOC(=O)[C@@H](NC(=O)[C@H](CC(=O)O)NC(=O)[C@H](CC(C)C)NC(=O)c1ccc2ccccc2n1)[C@@H](C)O [Compound 195]
< 5.00 | CCCCOC(=O)[C@@H](NC(=O)[C@H](CC(=O)O)NC(=O)[C@H](CC(C)C)NC(=O)Cc1ccccc1)C(C)C [Compound 196]
5.00 to 7.30 | COc1ccc(CNC(=O)[C@@H](NC(=O)[C@H](CC(=O)O)NC(=O)[C@H](CC(C)C)NC(=O)c2ccc3ccccc3n2)[C@@H](C)O)cc1 [Compound 197]
< 5.00 | CC(C)C[C@H](NC(=O)c1ccc2ccccc2n1)C(=O)N[C@@H](CC(=O)O)C(=O)NCCC(C)(C)C [Compound 198]
5.00 to 7.30 | CC(C)C[C@H](NC(=O)Cc1ccc(NC(=O)Nc2ccccc2)cc1)C(=O)N[C@@H](CC(=O)O)C(=O)N[C@H](C(=O)N1CCC[C@H]1C(N)=O)C(C)C [Compound 201] ({NHPh-CO}-[X2]LDVP-NH2)
> 7.30 | CC(C)C[C@H](NC(=O)Cc1ccc(NC(=O)Nc2ccccc2)cc1)C(=O)N[C@@H](CC(=O)O)C(=O)N[C@H](C(=O)O)C(C)C [Compound 203]
5.00 to 7.30 | CNC(=O)[C@@H](NC(=O)[C@H](CC(=O)O)NC(=O)[C@H](CC(C)C)NC(=O)Cc1ccc(NC(=O)Nc2ccccc2)cc1)C(C)C [Compound 204]
5.00 to 7.30 | CC(C)CNC(=O)[C@@H](NC(=O)[C@H](CC(=O)O)NC(=O)[C@H](CC(C)C)NC(=O)Cc1ccc(NC(=O)Nc2ccccc2)cc1)C(C)C [Compound 205]
5.00 to 7.30 | CC[C@H](C)[C@H](NC(=O)Cc1ccc(NC(=O)Nc2ccccc2)cc1)C(=O)N[C@@H](CC(=O)O)C(=O)N[C@H](C(=O)N1CCC[C@H]1C(N)=O)C(C)C [Compound 209] ({NHPh-CO}-[X2]IDVP-NH2)
5.00 to 7.30 | CC(C)CC(NC(=O)Cc1ccc(NC(=O)Nc2ccccc2)cc1)C(=O)NC(CC(=O)O)C(=O)NC(C(=O)N1CCCC1C(N)=O)C(C)C (stereo not shown) [Compound 211] ({NHPh-CO}-[X2]LDVP-NH2; configuration not given here)
5.00 to 7.30 | CC(C)C[C@H](NC(=O)Cc1ccc(NC(=O)Nc2ccccc2)cc1)C(=O)N[C@@H](CC(=O)O)C(=O)NCc1ccccc1 [Compound 213]
5.00 to 7.30 | CC(C)C[C@H](NC(=O)Cc1ccc(NC(=O)Nc2ccccc2)cc1)C(=O)N[C@@H](CC(=O)O)C(=O)N1CCOCC1 [Compound 214]
5.00 to 7.30 | CC(C)C[C@H](NC(=O)Cc1ccc(NC(=O)Nc2ccccc2)cc1)C(=O)N[C@@H](CC(=O)O)C(=O)NC(C)C [Compound 215]
5.00 to 7.30 | CC(C)CC(NC(=O)Cc1ccc(NC(=O)Nc2ccccc2)cc1)C(=O)NC(CC(=O)O)C(=O)NC1CCCCC1 (stereo not shown) [Compound 216]
5.00 to 7.30 | CC(C)CNC(=O)[C@H](CC(=O)O)NC(=O)[C@H](CC(C)C)NC(=O)Cc1ccc(NC(=O)Nc2ccccc2)cc1 [Compound 217]
5.00 to 7.30 | CC(C)C[C@H](NC(=O)Cc1ccc(NC(=O)Nc2ccccc2)cc1)C(=O)N[C@@H](CC(=O)O)C(=O)N1CCCCC1 [Compound 218]
> 7.30 | CSCC[C@H](NC(=O)Cc1ccc(NC(=O)Nc2ccccc2C)cc1)C(=O)N[C@@H](CC(=O)O)C(=O)N[C@H](C(N)=O)C(C)C [Compound 221]
> 7.30 | CSCC[C@H](NC(=O)[C@H](CC(=O)O)NC(=O)[C@H](CCSC)NC(=O)Cc1ccc(NC(=O)Nc2ccccc2C)cc1)C(N)=O [Compound 225]
> 7.30 | Cc1ccccc1NC(=O)Nc1ccc(CC(=O)N[C@@H](CC(C)C)C(=O)N[C@@H](CC(=O)O)C(=O)N[C@H](C(N)=O)[C@@H](C)O)cc1 [Compound 235]
> 7.30 | Cc1ccccc1NC(=O)Nc1ccc(CC(=O)N[C@@H](CC(C)C)C(=O)N[C@@H](CC(=O)O)C(=O)N[C@@H](Cc2c[nH]c3ccccc23)C(N)=O)cc1 [Compound 239]
> 7.30 | CC[C@H](C)[C@H](NC(=O)[C@H](CC(=O)O)NC(=O)[C@@H]1CCCN1C(=O)Cc1ccc(NC(=O)Nc2ccccc2C)cc1)C(N)=O [Compound 244]
> 7.30 | CSCC[C@H](NC(=O)[C@H](CC(=O)O)NC(=O)[C@@H]1CCCN1C(=O)Cc1ccc(NC(=O)Nc2ccccc2C)cc1)C(N)=O [Compound 247]
> 7.30 | Cc1ccccc1NC(=O)Nc1ccc(CC(=O)N[C@H](C(=O)N[C@@H](CC(=O)O)C(=O)N[C@@H](CC(=O)O)C(N)=O)[C@@H](C)O)cc1 [Compound 252]
